US20070037833A1, “Compositions and methods for inhibiting neurodegeneration” (priority 2005, published 2007)
Where “and” joins values, the source holds several entries; their conditions need not be identical. Equal values may be shown once. Entries after “also recorded” stand apart in the source; their conditions may differ.

How the values were obtained:
[1] = tested on: motor neurons in embryonic rat spinal cord cultures; assay: Excitotoxicity assay (100 μM kainic acid) in mixed spinal cord cultures; format: cell-based; conditions: for % of motor neurons killed (cell death) after excitotoxic insult: 4 day pre-treatment prior to 100 μM kainic acid; for excitotoxic motor neuron death: drug for 4 days (added 4 and 2 days) prior to 100 μM kainic acid 1 h, SMI-32(+) motor neurons counted 24 h later
Protocol: Unless otherwise specified, BDNF was added to all cultures.
Many previous in vitro investigations have identified motor neurons in mixed spinal cord cell culture by immunostaining for non-phosphorylated neurofilaments (or peripherin) and restricting analysis to cells with a soma diameter of 25 μm or greater (Carriedo et al., 2000; Hu and Kalb, 2003). We wanted to confirm the validity of this approach using an independent method for determining whether a given cell is a motor neuron. To specifically identify motor neurons in our cultures we purified these cells by metrizamide gradient and immunopanning techniques (Henderson et al., 1993; Fryer et al., 1999), live-labeled them with CM-DiI, and added these fluorescently-tagged, bona fide motor neurons to mixed cell cultures at the time of initial plating. All CM-DiI labeled cells stained for motor neurons markers such as non-phosphorylated neurofilament H (using antibody, SMI-32), peripherin, choline acetyl transferase (ChAT) and islet ½ (FIG. 1, panel a.). We then subjected spinal cord cultures to an excitotoxic insult and determined motor neuron survival using multiple methods for identifying motor neurons. […] Since all SMI-32 (+) cells with cell body diameter of 25 μm or greater were CM-DiI (+) and all CM-DiI (+) cells were SMI-32 (+), for the remainder of the studies herein, we could confidently study motor neuron death in vitro by counting SMI-32 (+) cells with a cell body diameter of 25 μm or greater.

[2] = tested on: Trk; assay: Immunoblot for phosphoTrk in spinal cord cultures; format: cell-based, rat; conditions: 24 hours treatment
Protocol: (§1) Cells were lysed in 1% NP-40 lysis buffers containing protease inhibitors, subjected to SDS-PAGE and immunoblotted as previously described (Fryer et al., 1999; Fryer et al., 2000). For immunoprecipitation, lysates from 60 mm dishes were pre-cleared by incubation with protein A beads (Santa Cruz), incubated with primary antibody (4 μg/ml)×2 hours then 50 μL of beads added and incubated overnight with gentle agitation at 4° C. Beads were pelleted, washed 5× with 10 mM Tris pH 7.4+0.5 mM EGTA+0.5 mM EDTA+0.1% NP40 before elution in 1× Laemelli sample buffer. Antibody sources: BD Transduction Labs—TrkB and MAP Kinase used at 1:500, Cell Signaling—Akt 1:1000; phosphoTrk (tyr490) 1:1000; phospho p42/44 MAP Kinase (thr 202/tyr204) 1:1000; phosphoAkt (ser473) 1:500; IGFI antibody (tyr 1131) 1:500. Upstate—adenosine A2a 1:1000. Sigma—actin 1:200. Biosource—active src (clone 28) 1:200.
(§2) We next asked about the effect of the adenosine A2 receptor antagonism on Trk signaling. Cultures of spinal cord cells (grown in the presence of a cocktail of trophic factors including 10 ng/ml BDNF) received KW6002 (1 μM), MRS1754 (50 nM) or vehicle (DMSO 0.1%) and 24 hrs. later, lysates were prepared for immunoblots for Trk and the MAP kinase downstream signaling module (FIG. 2, panel a). Immunoblots for phosphoTrk and phosphoMAPK were employed to monitor the state of activation of these proteins.
(§3) We followed up these observations by determining the effect of enprofylline on Trk signaling and determined the extent to which the resultant biochemical changes mimic the effects of direct pharmacological Trk antagonism with CEP4416. […] The effect of drug treatment on AKT was particularly marked. […] To determine the specificity of these agents, we examined their effect on Insulin-like growth factor 1 (IGF1) signaling through the IGF receptor tyrosine kinase (IGFR). […] It is unlikely that phosphodiesterase activity of enprofylline can explain these observations as increased cAMP levels enhance, not suppress, TrkB activation (Boulanger and Poo, 1999; Ji et al., 2005).

[3] = tested on: MAP kinase; assay: Immunoblot for phosphoMAPK in spinal cord cultures; format: cell-based, rat; conditions: 24 hours treatment
Protocol: as §1, §2, §3

[4] = tested on: src-family kinases (SFK); assay: Immunoblot for active SFKs (clone 28 antibody) in spinal cord cultures; format: cell-based, rat; conditions: 24 hours treatment; listed as MRS 1754
Protocol: as §1
The precise mechanism by which G-protein coupled receptors trans-activate receptor tyrosine kinases is complex and to some extent receptor-subtype specific (Luttrell et al., 1999; Downward, 2003; Piiper and Zeuzem, 2004; Waters et al., 2004). […] If this pathway was operative in spinal cord neurons, then antagonism of adenosine A2a receptors might lead to reduced src activation and antagonism of SFKs might be neuro-protective. Src is negatively regulated by phosphorylation of tyrosine 529 (refers to human src sequence) and an antibody that recognizes a de-phospho epitope in this region (“clone 28”) is a reliable measure of active src and SFKs (Kawakatsu et al., 1996). We began by asking for adenosine A2a receptors and active SFKs are present in the same cells and if so, their subcellular distribution. Pure motor neurons, grown in the presence of BDNF were immunostained with a rabbit anti-adenosine A2a receptor and the clone 28 antibody. One hundred percent of motor neurons expressed both antigens and on dendrites, the immunoreactivity formed discrete fine puncta (FIG. 5a). Many, but not all, puncta were stained with both antibodies. […]

[5] = tested on: IGF receptor tyrosine kinase (IGFR); assay: Immunoblot for phospho-IGFR in spinal cord cultures; format: cell-based, rat; conditions: 5 nM, 30 min
Protocol: as §1, §3

[6] = tested on: motor neurons in embryonic rat spinal cord cultures; conditions: Mojsilovic-Petrovic et al., 2005; cited from earlier work
[7] = tested on: motor neurons expressing G85R SOD; assay: Motor neuron death from HSV-expressed mutant SOD in spinal cord cultures; format: cell-based, rat; conditions: 6 days post-infection; treatment daily or every other day
From the text: (§4) Various cDNAs were cloned into the PrpUC amplicon plasmid and were used to generate recombinant HSV as previously described (Neve et al., 1997). The titer of viruses used in these studies were routinely 3-5×10^7 plaque-forming units/ml. The cDNA for wild type/mutant SOD and wild type/mutant p150^glued were gifts of D. Borchelt and E. Holzbaur, respectively. The K295R mutant version of chick src was a gift of J. Brugge.
(§5) Mutations in superoxide dismutase (SOD) or the p150^glued subunit of dynactin are known to account for a familial form of ALS in a subpopulation of individuals (Rosen, 1993; Puls et al., 2003; Bruijn et al., 2004). We inquired whether expression the mutant forms of SOD or p150^glued caused motor neuron death in vitro and if Trk antagonism was neuroprotective. Recombinant herpes simplex viruses (HSVs) were generated that expressed wild type or mutant form of SOD (G85R) and wild type or mutant p150^glued (G59S). […] Spinal cord cultures were infected with virus at 14 DIV and the number of motor neurons was determined 2, 4, 6 or 8 days later (FIG. 4, panel a.).
(§6) We next determined if KW6002 could protect motor neurons from the toxic effects of mutant proteins. Spinal cord cultures were infected with viruses expressing wild type or mutant versions of SOD or p150^glued at 14 DIV, then treated with drug or vehicle for 4 days (FIG. 4, panel b.). […]

[8] = tested on: motor neurons expressing G59S p150^glued; assay: Motor neuron death from HSV-expressed mutant p150glued in spinal cord cultures; format: cell-based, rat; conditions: 6 days post-infection; treatment daily or every other day
From the text: as §4, §5, §6

Molecule: O=S(=O)(NCCNC/C=C/c1ccc(Br)cc1)c1cccc2cnccc12 [H89]
- % of motor neurons killed (cell death) after excitotoxic insult [1]: 40% and 53±5%

Molecule: C[C@]12O[C@H](C[C@]1(O)CO)n1c3ccccc3c3c4c(c5c6ccccc6n2c5c31)CNC4=O [CEP701]
- excitotoxic motor neuron death [1]: No motor neuron death occurred
- excitotoxic motor neuron death ([1]; listed as CEP-701): completely blocked the loss of SMI(+) neurons

Molecule: CCCn1c(=O)c2[nH]c(-c3ccc(OCC(=O)Nc4ccc(C#N)cc4)cc3)nc2n(CCC)c1=O [MRS1754]
- abundance of phosphoTrk [2]: indistinguishable from the vehicle control
- % of motor neurons killed (cell death) after excitotoxic insult [1]: 50%
- % of motor neurons killed (cell death) after excitotoxic insult ([1]; listed as MRS 1754): ~40%
- abundance of phosphoMAPK [3]: indistinguishable from the vehicle control
- abundance of active SFKs [4]: only reduced in cultures treated with KW6002

Molecule: C=C(C)[C@H]1CN[C@H](C(=O)O)[C@H]1CC(=O)O [kainic acid]
- loss of motor neurons ([1]; 100 μM for 1 hour, counted 24 hours later, 14-16 DIV): ~45%

Molecule: IGF1: Insulin-like growth factor 1
- IGFR phosphorylation upon acute administration [5]: robust induction of phospho-IGFR; also recorded: strong increase in IGFR phosphorylation

Molecule: Nc1nc(NCCc2ccc(O)cc2)nc2nc(-c3ccco3)nn12 [ZM241385]
- excitotoxic cell death in pre-treated cultures (previous observations) [6]: no excitotoxic cell death

Molecule: CCCn1c(=O)c2[nH]c(C3CCCC3)nc2n(CCC)c1=O [DPCPX]
- excitotoxic cell death in pre-treated cultures (previous observations) [6]: death occurred

Molecule: Nc1ncnc2c1ncn2C1CCCO1 (stereo not drawn) [SQ 22536]
- % of motor neurons killed (cell death) after excitotoxic insult [1]: 40% and 42±4%
- basal survival of motor neurons ([1]; 4 day pre-treatment, without excitotoxic challenge): did not adversely affect the basal survival of motor neurons

Molecule: CCCC(=O)Nc1ncnc2c1ncn2[C@@H]1O[C@@H]2COP(=O)(O)O[C@H]2[C@H]1OC(=O)CCC [db-cAMP, dibutryl-cAMP]
- % of motor neurons killed (cell death) after excitotoxic insult [1]: −2±3%
- excitotoxic motor neuron death [1]: No excitotoxic cell death occured

Molecule: Cc1ccc(-c2nn(C(C)(C)C)c3ncnc(N)c23)cc1 [PP1]
- abundance of phosphoTrk [2]: reduction in the abundance of phosphorylated Trk; also recorded: reduction in the abundance of phosphoTrk
- % motor neuron survival after excitotoxic challenge ([1]; SFK inhibition before excitotoxicity assay): 100±2%
- number of motor neurons surviving excitotoxic challenge ([1]; SFK inhibition, versus LacZ or vehicle): statistically significant greater number of motor neurons

Molecule: N#Cc1cc2[nH]c(=O)c(=O)[nH]c2cc1[N+](=O)[O-] [CNQX]
- motor neuron survival / toxicity of G85R SOD [7]: significantly greater number of motor neurons; also recorded: completely prevented the toxicity of mutant protein expression
- motor neuron survival / toxicity of G59S p150glued [8]: significantly greater number of motor neurons; also recorded: completely prevented the toxicity of mutant protein expression
